Source: article doi:10.1101/2023.11.24.568596v1 (biorxiv, 2023)
Blank lines part the entries; values can stand above or below the compound they belong to.

What was measured:
Details in all cases: binder
ABL1 = ABL1 (Homo sapiens, UniProt P00519)
AurA = molecular target: T1, AurA (Homo sapiens, UniProt O14965)
T1 sequence (O14965 1-403): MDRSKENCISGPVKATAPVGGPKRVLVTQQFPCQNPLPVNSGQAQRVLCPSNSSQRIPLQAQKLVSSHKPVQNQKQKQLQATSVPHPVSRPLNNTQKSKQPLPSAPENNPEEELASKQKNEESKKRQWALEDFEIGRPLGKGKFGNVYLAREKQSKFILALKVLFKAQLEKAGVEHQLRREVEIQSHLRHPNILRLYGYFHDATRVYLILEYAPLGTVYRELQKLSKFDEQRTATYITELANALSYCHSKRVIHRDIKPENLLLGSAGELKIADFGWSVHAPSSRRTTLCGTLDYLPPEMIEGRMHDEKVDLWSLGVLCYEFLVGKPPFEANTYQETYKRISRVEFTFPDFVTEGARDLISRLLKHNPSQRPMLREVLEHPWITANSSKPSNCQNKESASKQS

BRD4 = BRD4 (Homo sapiens, UniProt O60885)
CDKL1 = CDKL1 (Homo sapiens, UniProt Q00532)
Chain of CDKL1 (Q00532 whole entry): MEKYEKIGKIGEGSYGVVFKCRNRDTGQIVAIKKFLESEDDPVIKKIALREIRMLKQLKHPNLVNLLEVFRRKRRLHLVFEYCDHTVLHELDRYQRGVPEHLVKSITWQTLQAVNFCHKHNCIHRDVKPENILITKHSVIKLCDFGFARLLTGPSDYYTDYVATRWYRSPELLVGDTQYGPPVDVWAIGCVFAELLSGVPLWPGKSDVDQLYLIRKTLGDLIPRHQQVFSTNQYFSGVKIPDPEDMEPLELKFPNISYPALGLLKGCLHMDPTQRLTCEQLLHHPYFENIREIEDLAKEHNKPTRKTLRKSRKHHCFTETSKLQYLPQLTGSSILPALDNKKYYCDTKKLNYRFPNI

CK1e = CK1e (Homo sapiens, UniProt P49674)
Chain of CK1e (P49674 whole entry): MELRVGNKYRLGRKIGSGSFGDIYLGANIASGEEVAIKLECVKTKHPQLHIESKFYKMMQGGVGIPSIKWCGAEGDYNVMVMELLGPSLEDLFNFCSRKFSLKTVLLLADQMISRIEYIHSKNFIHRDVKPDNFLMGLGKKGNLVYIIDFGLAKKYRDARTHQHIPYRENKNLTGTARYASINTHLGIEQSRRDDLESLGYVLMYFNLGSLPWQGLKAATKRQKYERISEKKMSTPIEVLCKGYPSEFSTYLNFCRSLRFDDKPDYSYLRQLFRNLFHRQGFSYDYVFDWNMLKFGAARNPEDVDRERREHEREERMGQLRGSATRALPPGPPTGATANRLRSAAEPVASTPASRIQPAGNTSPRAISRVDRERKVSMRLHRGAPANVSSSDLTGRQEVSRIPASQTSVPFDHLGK

CaMK2b = CaMK2b (Homo sapiens, UniProt Q13554)
Chain of CaMK2b (Q13554 whole entry): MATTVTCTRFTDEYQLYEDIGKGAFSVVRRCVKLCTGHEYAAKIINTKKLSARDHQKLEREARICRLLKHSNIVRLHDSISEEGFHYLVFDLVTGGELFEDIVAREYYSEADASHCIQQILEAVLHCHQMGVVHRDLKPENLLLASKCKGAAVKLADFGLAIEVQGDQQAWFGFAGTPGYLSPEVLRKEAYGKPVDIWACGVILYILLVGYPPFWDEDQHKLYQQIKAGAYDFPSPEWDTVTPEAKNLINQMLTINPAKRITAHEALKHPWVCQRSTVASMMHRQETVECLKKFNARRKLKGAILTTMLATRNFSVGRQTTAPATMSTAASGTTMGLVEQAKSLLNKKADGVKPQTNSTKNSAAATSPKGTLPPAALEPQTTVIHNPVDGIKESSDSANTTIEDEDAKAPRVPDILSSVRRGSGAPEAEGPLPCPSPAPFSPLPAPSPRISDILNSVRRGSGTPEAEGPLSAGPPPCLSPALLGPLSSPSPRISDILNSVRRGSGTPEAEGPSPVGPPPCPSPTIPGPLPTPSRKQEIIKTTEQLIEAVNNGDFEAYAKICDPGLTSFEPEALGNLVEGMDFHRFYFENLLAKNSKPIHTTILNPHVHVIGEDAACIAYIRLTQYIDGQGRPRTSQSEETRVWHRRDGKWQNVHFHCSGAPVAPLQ

DMPK1 = molecular target: T2, DMPK1 (Homo sapiens, UniProt Q09013)
T2 sequence (Q09013 1-629): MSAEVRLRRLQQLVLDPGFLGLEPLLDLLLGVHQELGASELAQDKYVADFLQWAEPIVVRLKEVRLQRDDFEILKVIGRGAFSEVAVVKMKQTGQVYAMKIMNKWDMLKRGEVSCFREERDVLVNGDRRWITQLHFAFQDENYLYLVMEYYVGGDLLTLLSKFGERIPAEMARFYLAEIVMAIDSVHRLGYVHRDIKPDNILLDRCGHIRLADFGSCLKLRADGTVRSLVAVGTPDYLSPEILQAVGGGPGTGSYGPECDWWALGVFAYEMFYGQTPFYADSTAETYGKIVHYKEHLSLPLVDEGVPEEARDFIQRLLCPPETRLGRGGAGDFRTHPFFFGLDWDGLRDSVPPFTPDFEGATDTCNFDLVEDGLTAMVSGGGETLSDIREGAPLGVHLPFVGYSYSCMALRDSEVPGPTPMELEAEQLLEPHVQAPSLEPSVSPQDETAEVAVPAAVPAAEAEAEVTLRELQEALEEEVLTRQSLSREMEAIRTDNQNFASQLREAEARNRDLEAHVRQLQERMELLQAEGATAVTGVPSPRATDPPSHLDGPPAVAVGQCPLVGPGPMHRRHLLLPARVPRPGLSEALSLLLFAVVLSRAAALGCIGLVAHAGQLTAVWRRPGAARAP

EphB3 = molecular target: T3, EphB3 (Homo sapiens, UniProt P54753)
T3 sequence (P54753 1-998): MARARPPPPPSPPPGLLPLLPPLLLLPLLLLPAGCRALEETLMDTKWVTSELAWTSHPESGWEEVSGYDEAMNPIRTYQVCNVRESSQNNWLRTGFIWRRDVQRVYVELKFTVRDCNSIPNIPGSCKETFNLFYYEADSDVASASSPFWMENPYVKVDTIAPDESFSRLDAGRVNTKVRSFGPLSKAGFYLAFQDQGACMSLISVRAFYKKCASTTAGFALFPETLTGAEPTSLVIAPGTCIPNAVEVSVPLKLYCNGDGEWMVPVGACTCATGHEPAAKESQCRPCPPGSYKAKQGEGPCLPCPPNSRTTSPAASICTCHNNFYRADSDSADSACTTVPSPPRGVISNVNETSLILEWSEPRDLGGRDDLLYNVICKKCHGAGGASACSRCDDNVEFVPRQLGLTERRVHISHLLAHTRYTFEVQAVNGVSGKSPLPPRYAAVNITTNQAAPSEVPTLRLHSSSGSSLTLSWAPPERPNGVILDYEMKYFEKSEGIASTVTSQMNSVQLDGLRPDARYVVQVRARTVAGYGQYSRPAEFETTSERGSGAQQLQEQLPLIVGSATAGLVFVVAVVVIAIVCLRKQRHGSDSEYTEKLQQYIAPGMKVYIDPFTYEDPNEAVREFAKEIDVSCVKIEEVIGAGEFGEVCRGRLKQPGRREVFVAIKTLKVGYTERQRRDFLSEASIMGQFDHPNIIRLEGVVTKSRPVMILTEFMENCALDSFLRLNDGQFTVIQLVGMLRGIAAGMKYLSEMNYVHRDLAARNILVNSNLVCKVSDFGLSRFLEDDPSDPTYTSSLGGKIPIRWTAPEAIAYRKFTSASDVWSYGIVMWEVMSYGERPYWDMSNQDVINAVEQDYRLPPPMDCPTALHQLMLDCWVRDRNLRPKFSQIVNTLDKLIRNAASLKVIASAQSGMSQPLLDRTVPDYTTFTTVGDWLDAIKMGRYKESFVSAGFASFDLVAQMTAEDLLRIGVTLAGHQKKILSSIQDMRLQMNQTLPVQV

FLT1 = FLT1 (Homo sapiens, UniProt P17948)
Chain of FLT1 (P17948 whole entry): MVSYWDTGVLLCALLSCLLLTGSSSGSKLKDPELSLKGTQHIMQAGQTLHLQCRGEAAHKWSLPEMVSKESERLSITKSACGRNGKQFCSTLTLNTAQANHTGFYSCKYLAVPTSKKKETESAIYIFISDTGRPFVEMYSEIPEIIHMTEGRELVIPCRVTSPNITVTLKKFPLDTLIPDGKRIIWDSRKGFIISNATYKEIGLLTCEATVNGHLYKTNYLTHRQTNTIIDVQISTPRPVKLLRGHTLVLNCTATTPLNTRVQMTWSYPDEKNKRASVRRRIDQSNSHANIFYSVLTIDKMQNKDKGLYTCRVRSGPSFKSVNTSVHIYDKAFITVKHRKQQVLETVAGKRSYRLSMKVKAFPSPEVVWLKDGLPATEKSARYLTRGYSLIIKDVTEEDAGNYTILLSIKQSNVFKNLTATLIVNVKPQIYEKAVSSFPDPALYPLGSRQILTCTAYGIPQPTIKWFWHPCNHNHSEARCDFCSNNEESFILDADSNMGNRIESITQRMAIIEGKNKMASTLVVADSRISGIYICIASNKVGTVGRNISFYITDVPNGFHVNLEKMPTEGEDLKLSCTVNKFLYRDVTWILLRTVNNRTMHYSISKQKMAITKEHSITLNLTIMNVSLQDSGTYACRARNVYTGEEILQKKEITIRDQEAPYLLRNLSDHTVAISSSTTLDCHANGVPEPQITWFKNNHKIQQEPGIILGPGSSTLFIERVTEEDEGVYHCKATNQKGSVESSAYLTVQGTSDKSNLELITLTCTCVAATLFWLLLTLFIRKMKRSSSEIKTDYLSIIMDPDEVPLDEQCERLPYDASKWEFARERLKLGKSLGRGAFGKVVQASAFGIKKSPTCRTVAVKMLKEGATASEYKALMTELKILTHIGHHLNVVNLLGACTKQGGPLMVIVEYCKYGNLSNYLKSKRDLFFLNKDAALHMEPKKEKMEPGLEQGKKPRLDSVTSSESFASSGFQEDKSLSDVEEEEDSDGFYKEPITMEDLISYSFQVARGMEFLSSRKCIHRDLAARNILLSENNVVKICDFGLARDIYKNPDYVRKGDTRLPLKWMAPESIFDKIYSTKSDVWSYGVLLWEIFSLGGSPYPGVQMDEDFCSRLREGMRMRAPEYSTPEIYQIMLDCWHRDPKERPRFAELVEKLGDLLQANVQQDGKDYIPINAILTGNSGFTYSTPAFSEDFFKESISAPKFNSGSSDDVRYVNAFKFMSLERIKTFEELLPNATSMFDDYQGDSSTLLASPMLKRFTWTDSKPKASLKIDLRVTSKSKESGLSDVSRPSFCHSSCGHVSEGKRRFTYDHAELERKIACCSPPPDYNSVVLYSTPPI

Chain of ABL1 (P00519 whole entry): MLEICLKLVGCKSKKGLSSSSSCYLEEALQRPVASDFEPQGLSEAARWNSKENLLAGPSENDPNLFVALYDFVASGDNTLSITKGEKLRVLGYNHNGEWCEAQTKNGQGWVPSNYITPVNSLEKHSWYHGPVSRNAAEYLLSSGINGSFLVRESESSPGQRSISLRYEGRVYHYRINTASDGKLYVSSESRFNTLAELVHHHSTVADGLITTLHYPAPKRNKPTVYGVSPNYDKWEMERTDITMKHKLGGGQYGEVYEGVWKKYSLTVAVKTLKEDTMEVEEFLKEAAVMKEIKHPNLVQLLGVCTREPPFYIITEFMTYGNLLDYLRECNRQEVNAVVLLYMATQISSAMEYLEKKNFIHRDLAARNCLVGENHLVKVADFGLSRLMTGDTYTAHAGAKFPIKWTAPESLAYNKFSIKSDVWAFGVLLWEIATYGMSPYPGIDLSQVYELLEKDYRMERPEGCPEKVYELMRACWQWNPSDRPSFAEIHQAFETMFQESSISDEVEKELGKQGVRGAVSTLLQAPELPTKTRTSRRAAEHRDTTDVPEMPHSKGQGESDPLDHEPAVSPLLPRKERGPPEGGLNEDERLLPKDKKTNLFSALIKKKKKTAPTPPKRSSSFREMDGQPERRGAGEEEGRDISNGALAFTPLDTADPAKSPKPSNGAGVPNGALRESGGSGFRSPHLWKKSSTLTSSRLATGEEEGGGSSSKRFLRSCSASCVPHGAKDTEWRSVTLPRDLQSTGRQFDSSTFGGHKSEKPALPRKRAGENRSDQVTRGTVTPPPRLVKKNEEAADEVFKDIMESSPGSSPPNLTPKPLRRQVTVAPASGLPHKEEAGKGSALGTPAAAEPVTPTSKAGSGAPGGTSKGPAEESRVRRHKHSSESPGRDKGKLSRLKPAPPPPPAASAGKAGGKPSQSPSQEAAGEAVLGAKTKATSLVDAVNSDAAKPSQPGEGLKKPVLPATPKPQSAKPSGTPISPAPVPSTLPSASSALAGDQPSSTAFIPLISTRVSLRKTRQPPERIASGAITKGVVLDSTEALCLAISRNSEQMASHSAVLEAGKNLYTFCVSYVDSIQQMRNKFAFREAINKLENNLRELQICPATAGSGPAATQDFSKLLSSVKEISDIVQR

ΔTm 32 (ABL1): 10.8 °C
ΔTm 32 (AurA): 5.9 °C
ΔTm 32 (BRD4): -2.7 °C
ΔTm 32 (CDKL1): 1.9 °C
ΔTm 32 (CK1e): 7.7 °C
ΔTm 32 (CaMK2b): 0.3 °C
ΔTm 32 (DMPK1): -4.5 °C
ΔTm 32 (EphB3): 8.5 °C
ΔTm 32 (FLT1): 5.6 °C
Compound: Cc1cccc(-c2ccc(-c3cc4cnc(Nc5ccc(C)c(O)c5)nc4n(CCCCN)c3=O)c(Cl)c2)n1 [compound 32, 8-(4-Aminobutyl)-6-(2-chloro-4-(6-methylpyridin-2-yl)phenyl)-2-((3-hydroxy-4-methylphenyl)amino)pyrido[2,3-d]pyrimidin-7(8H)-one]

ΔTm 31 (ABL1): 10.6 °C
ΔTm 31 (AurA): 4.4 °C
ΔTm 31 (BRD4): -1.6 °C
ΔTm 31 (CDKL1): 2.1 °C
ΔTm 31 (CK1e): 7.5 °C
ΔTm 31 (CaMK2b): -0.4 °C
ΔTm 31 (DMPK1): -2.0 °C
ΔTm 31 (EphB3): 5.3 °C
ΔTm 31 (FLT1): 5.6 °C
Compound: Cc1cccc(-c2ccc(-c3cc4cnc(Nc5ccc(O)cc5)nc4n(CCCCN)c3=O)c(Cl)c2)n1 [compound 31, 8-(4-Aminobutyl)-6-(2-chloro-4-(6-methylpyridin-2-yl)phenyl)-2-((4-hydroxyphenyl)amino) pyrido[2,3-d]pyrimidin-7(8H)-one]

ΔTm MR30 (27) (ABL1): 3.0 °C
ΔTm MR30 (27) (AurA): -0.3 °C
ΔTm MR30 (27) (BRD4): -3.9 °C
ΔTm MR30 (27) (CDKL1): 0.9 °C
ΔTm MR30 (27) (CK1e): 6.4 °C
ΔTm MR30 (27) (CaMK2b): -1.1 °C
ΔTm MR30 (27) (DMPK1): -1.4 °C
ΔTm MR30 (27) (EphB3): 2.3 °C
ΔTm MR30 (27) (FLT1): 2.4 °C
Compound: Cc1cccc(-c2ccc(-c3cc4cnc(NCCCN5CCCC5=O)nc4n(CCCCN)c3=O)c(Cl)c2)n1 [compound 27, MR30]

ΔTm 28 (ABL1): 6.9 °C
ΔTm 28 (AurA): 6.5 °C
ΔTm 28 (BRD4): -3.7 °C
ΔTm 28 (CDKL1): 0.7 °C
ΔTm 28 (CK1e): 4.9 °C
ΔTm 28 (CaMK2b): 0.7 °C
ΔTm 28 (DMPK1): -2.4 °C
ΔTm 28 (EphB3): 4.1 °C
ΔTm 28 (FLT1): 7.8 °C
Compound: Cc1cccc(-c2ccc(-c3cc4cnc(Nc5cc(C(F)(F)F)ccc5C)nc4n(CCCCN)c3=O)c(Cl)c2)n1 [compound 28, 8-(4-Aminobutyl)-6-(2-chloro-4-(6-methylpyridin-2-yl)phenyl)-2-((2-methyl-5-(trifluoromethyl)phenyl)amino)pyrido[2,3-d]pyrimidin-7(8H)-one]

ΔTm 30 (ABL1): 10.3 °C
ΔTm 30 (AurA): 8.6 °C
ΔTm 30 (BRD4): -2.4 °C
ΔTm 30 (CDKL1): 1.6 °C
ΔTm 30 (CK1e): 8.2 °C
ΔTm 30 (CaMK2b): 0.3 °C
ΔTm 30 (DMPK1): -5.0 °C
ΔTm 30 (EphB3): 6.9 °C
ΔTm 30 (FLT1): 4.3 °C
Compound: Cc1cccc(-c2ccc(-c3cc4cnc(Nc5ccc(CCCO)cc5)nc4n(CCCCN)c3=O)c(Cl)c2)n1 [compound 30, 8-(4-Aminobutyl)-6-(2-chloro-4-(6-methylpyridin-2-yl)phenyl)-2-((4-(3-hydroxypropyl)phenyl)amino)pyrido[2,3-d]pyrimidin-7(8H)-one]

ΔTm 29 (ABL1): 4.0 °C
ΔTm 29 (AurA): -2.1 °C
ΔTm 29 (BRD4): -2.2 °C
ΔTm 29 (CDKL1): 0.5 °C
ΔTm 29 (CK1e): 5.8 °C
ΔTm 29 (CaMK2b): -0.5 °C
ΔTm 29 (DMPK1): -1.3 °C
ΔTm 29 (EphB3): 2.3 °C
ΔTm 29 (FLT1): 3.9 °C
Compound: Cc1cccc(-c2ccc(-c3cc4cnc(NCCCN5CCNCC5)nc4n(CCCCN)c3=O)c(Cl)c2)n1 [compound 29, 8-(4-Aminobutyl)-6-(2-chloro-4-(6-methylpyridin-2-yl)phenyl)-2-((3-(piperazin-1-yl)propyl)amino)pyrido[2,3-d]pyrimidin-7(8H)-one]
